From patent publication US20040229960A1, “Compositions and methods of administering tubulin binding agents for the treatment of ocular diseases” (priority 2001, published 2004)

Key:
[1] = Biodistribution of 14C-CA4P following topical administration of a solution formulation; type: in vivo, New Zealand rabbits
Experimental: ^14C-CA4P (OXiGENE Inc., Watertown, Mass.) was resuspended in 100 ul volume of saline solution and injected with a 30 G needle into the right eyes of anesthesized male New Zealand rabbits (4 months old, 1.8-2.5 kg, n=3 per sample). Three different concentrations of ^14C-CA4P were tested (1, 10, 100 mg/ml) corresponding to doses of 1, 5, and 5 uCi of applied radioactivity respectively. A blank control group was also included. Rabbits were anaesthetized at 1, 6, 24, and 48 hours for blood sampling. After blood collection, the animals were euthanized by Phenobarbital injection and the treated right eyes were removed from all test animals. Ocular tissue samples were dissected from the cornea, aqueous humor, vitreous humor, choroid, or retina, placed in 20-mi glass scintillation vials, vortexed, and incubated for 24 hrs with 500 ul digesting fluid. Plasma was separated from whole blood by centrifugation (1,800 g for 10 minutes). Both ocular tissue samples and plasma were incubated at room temperature with 16 ml of Hionic Fluor™ scintillation fluid for a period of 24 hours prior to radioactivity counting. Each sample was counted for 5 minutes in a Betamatic V counter (Bio-Tek Kontron Instruments, St Quentin en Yvelines, France). The conversion of counts per minute (“cpm”) into disintegrations per minute (“dpm”) was performed automatically by the beta-counter, using calibration curves obtained from ^14C-standards and quenching curves from the respective blank matrices spiked with ^14C-standards. The concentration of drug was determined according to nanogram equivalents of CA4P (ng-Eq/g of tissue) which was calculated from the measured dpm value, the weight of the tissue specimen, and the specific activity of the drug (0.37 mCi/mg), followed by subtraction of the corresponding background value from control eye tissue. A tissue concentration of 1 uM CA4P is equal to […] tissue.
Topical gels and solutions were developed for use as topical formulation suitable for the topical delivery of CA4P to the surface of the eye. Topical solutions (1, 3, and 10%) was directly prepared in 0.9% NaCl (Aguettant, Lyon, France) and sterilized with 0.2 um filter (pH 6.4 to 8.5, osmolarity 290 to 459 mosmol/kg H2O. Low viscosity topical gels (1,3,and 10%) were prepared in 0.5% carboxymethylcellulose (Sigma Aldrich Chimie, St. Quentin Fallavier Cedex, France) with 0.9% NaCl. The physicochemical specifications of each gel are listed in Table 5
Topical formulations were applied to the surface of right eyes at an applied dose of 5 uCi in a volume of 50 ul. Cornea was sampled instead of sclera. Samples were taken at […] and 24 hours.

[2] = Transscleral iontophoretic delivery to retina/choroid (LC/MS/MS); type: in vivo, New Zealand white rabbits; conditions: for Enhancement: 20 min vs passive 0 mA; for Amount CA4P Delivered / Amount CA4 Delivered / Total Combretastatin Delivered: retina/choroid, mean ± SD; for Amount CA4P Delivered / Amount CA4 Delivered: CA4P 10 mg/ml; for Amount CA4 Delivered: extrapolated beyond quantification range
Experimental: CA4P is ionizable at physiological pH and therefore is amenable to iontophoretic delivery. The effectiveness of transcleral iontophoretic delivery of CA4P was evaluated using an ocular rabbit ophthalmic applicator (IOMED Inc.,.Salt Lake City, Utah) composed of an 180 ul silicone receptacle shell backed with silver chloride-coated silver foil current distribution component, a connector lead wire, and a single layer of hydrogel-impregnated polyvinyl acetal matrix to which CA4P (10 mg/ml) was administered. The contact surface area of the applicator was 0.54 cm^2. […] Direct current anodal iontophoresis was performed with each applicator at 2,3,and 4 mA for 20 min using an Phoresor II™ PM 700 (IOMED Inc., Salt Lake City, Utah) power supply. Passive iontophoresis (0 mA for 20 min) was used as a control. Following treatment, the animals were euthanized, and eyes were enucleated 30 minutes post-treatment, rinsed with tap water, and frozen at −70 C. Retina and choirodal tissue was dissected from these sample.
CA4P, CA, and the internal standard Diethylstilbestrol (Sigma Chemical Company) were quantified from approximately 100 mg of tissue using chromatography tandem mass spectrometry (“LC/MS/MS”) method. An aliquot of methonal extraction was injected onto a SCIEX APIO 3000 LC/MS/MS apparatus equipped with an HPLC colum. Peak area of the m/z 315→285 product ion of CA43 and m/z 395→79 product ion of CA4P were measured against the peak area of the m/z 267→237 product ion of the internal standard. Quantitation was performed using weighted (1/x) linear least squares regression analyses generated from fortified calibration standards prepared immediately prior to each run. […] These levels represent a several thousand-fold excess over what is considered to be a therapeutically relevant concentration for inhibiting tubulin binding (2-3 uM).

[3] = test system: retinoblastoma; assay: Murine transgenic model of retinoblastoma, subconjunctival treatment; type: in vivo, SV-40 Large T antigen positive mice
Experimental: A murine transgenic model of retinoblastoma was used in which SV-40 Large T antigen positive mice develop bilateral retinoblastoma resembling human pediatric retinoblastoma. In this model, tumors first appear at 4 weeks of age and develop in a stable and reproducible manner (Hayden et al., Arch Ophthalmol. 2002;120(3):353-9). In one experiment, 12-week old animals (n=48) were treated with a single 20 ul subconjunctival injection of CA4P (100 mg/ml) in the right eye only. Control mice (n=8) were treated with a balanced salt solution (“BSS”). Eyes were sampled by enucleation at Days 1, 3, 7, 14, 21, and 28 post treatment (n=8 eyes per sample). Samples were fixed, paraffin embedded, serially sectioned, and stained with heometoxylin, eosin, and PAS prior. Each tissue sample was examined for histopathological tumor vascular response.
In a separate dosing experiment, animals (n=48) were treated with 6 serial biweekly subconjunctival injections of CA4P, at concentrations of 100, 10, 1, 0.1 or 0.01 mg/ml in a volume of 20 ul (n=6 eyes per sample). A control group (n=6) received serial subconjunctival injections of BSS. Eyes were enucleated at 28 days post-treatment and examined for tumor volume reduction. FIG. 5B illustrates the dose-dependent effect of CA4P on tumor vascular volume in comparison to control.

In the case of `COc1ccc(/C=C\c2cc(OC)c(OC)c(OC)c2)cc1OP(=O)([O-])[O-].[Na+].[Na+]` [CA4P, combretastatin A4 disodium phosphate], the Cmax ([1]; aqueous humor, 1% topical solution) was 600 nM, the Cmax ([1]; aqueous humor, 3% topical solution) was 1900 nM and the Cmax ([1]; aqueous humor, 10% topical solution) was 4100 nM. For the same compound, the Cmax ([1]; choroid, 1% topical solution) was 870 nM, the Cmax ([1]; choroid, 3% topical solution) was 1900 nM and the Cmax ([1]; choroid, 10% topical solution) was 15600 nM. For the same compound, the Cmax ([1]; cornea, 1% topical solution, 50 ul) was 10000 nM, the Cmax ([1]; cornea, 3% topical solution, 50 ul) was 34000 nM and the Cmax ([1]; cornea, 10% topical solution, 50 ul) was 104000 nM. The “Concentration of drug delivered” value ([1]; cornea, all three solution formulations) was over 1000 nM, the Cmax ([1]; plasma, 1% topical solution) was 70 nM and the Cmax ([1]; plasma, 3% topical solution) was 840 nM. It also gave a Cmax ([1]; plasma, 10% topical solution) of 1270 nM, a Cmax ([1]; retina, 1% topical solution) of 270 nM and a Cmax ([1]; retina, 3% topical solution) of 390 nM. For the same compound, the Cmax ([1]; retina, 10% topical solution) was 4200 nM, the “Time of highest concentrations of drug in the eye” value ([1]; topical solution) was “within the first hour” and the Enhancement ([2]; 2 mA) was 17. For the same compound, the Enhancement ([2]; 3 mA) was 16, the Enhancement ([2]; 4 mA) was 15 and the “Enhancement of delivery of total combretastatin to choroid and retina by iontophoresis” value ([2]; iontophoresis vs passive delivery) was “approximately 15 fold”. The “Amount CA4P Delivered” value ([2]; 0 mA, 20 min (passive)) was under 0.4 ng, the “Amount CA4 Delivered” value ([2]; 0 mA, 20 min (passive)) was 57 ± 37 ng and the “Total Combretastatin Delivered” value ([2]; 0 mA, 20 min (passive)) was 1.6 ± 1.0 nmol/g. For the same compound, the “Amount CA4P Delivered” value ([2]; 2 mA, 20 min) was 1.4 ± 0.5 ng, the “Amount CA4 Delivered” value ([2]; 2 mA, 20 min) was 910 ± 630 ng and the “Total Combretastatin Delivered” value ([2]; 2 mA, 20 min) was 27 ± 15 nmol/g. For the same compound, the “Amount CA4P Delivered” value ([2]; 3 mA, 20 min) was 3.8 ± 1.5 ng, the “Amount CA4 Delivered” value ([2]; 3 mA, 20 min) was 710 ± 450 ng and the “Total Combretastatin Delivered” value ([2]; 3 mA, 20 min) was 25 ± 17 nmol/g. The “Amount CA4P Delivered” value ([2]; 4 mA, 20 min) was 7.2 ± 6.3 ng, the “Amount CA4 Delivered” value ([2]; 4 mA, 20 min) was 670 ± 440 ng and the “Total Combretastatin Delivered” value ([2]; 4 mA, 20 min) was 24 ± 10 nmol/g. For the same compound, the Intratumoral vascularity ([3]; 6 serial biweekly subconjunctival injections, dose levels above 10 mg/ml, 28 days post-treatment) was “No intratumoral vascularity was present”, the Toxicity ([3]; any time point or treatment dose (0.01-100 mg/ml subconjunctival)) was “no evidence of toxicity was noted” and the Intratumoral vascularization ([3]; single 20 ul subconjunctival injection, 100 mg/ml, Days 1, 3 and 7) was “significant reduction in intratumoral vascularization”.
